Laboratory results taken from PMC11145868, “Protein target similarity is positive predictor of in vitro antipathogenic activity: a drug repurposing strategy for Plasmodium falciparum” (Journal of Cheminformatics, 2024).
Structures can show the parent of a compound that is named as a salt. Where two headings read alike, the source gives them in different places. Numbered stars: 1 amine (or outer) side, 2 acyl side, 3 side chain; on linkers, the order of the positions; unused ones are H or OH. Bridge positions count the residues as written; N and C are the ends. Square brackets hold non-standard residues; d marks the D form. Peptide text beside a SMILES is read from it. I, II: the chains in the order shown. Actinocin(9to1) = Cc1c2oc3c(C)ccc(C(=O)[*:1])c3nc-2c(C(=O)[*:2])c(N)c1=O; NMeV = CN[C@H](C(=O)O)C(C)C; Sar = CNCC(=O)O

Experiments:
P. falciparum Dd2-HLH [1] = test: microbe, parasite or virus in culture; type: cell-based, Plasmodium falciparum
HepG2 cells [2] = test: Mammalian cell cytotoxicity assay, HepG2 (CellTiter-Glo, 72 h); conditions: read-out: HEP CC50
HEK293T cells [3] = test: Mammalian cell cytotoxicity assay, HEK293T (CellTiter-Glo, 72 h); conditions: read-out: HEK CC50
P. falciparum Dd2-HLH [4] = test: microbe, parasite or virus in culture; type: cell-based, Plasmodium falciparum; remark: listed apart in the source
[5] = biological target: P. berghei-luciferase sporozoites; test: microbe, parasite or virus in culture; type: cell-based, Plasmodium berghei; conditions: liver-stage parasites
in vitro = conditions: human
HEK293T cells [6] = test system: HEK293T cells
HepG2 cells [7] = test system: HepG2 cells
[8] = Mammalian cell cytotoxicity assay, HepG2 (CellTiter-Glo, 72 h); conditions: human
[9] = P. falciparum blood-stage parasites, 48 hours in culture, read-out: Blood stage 48h EC50
[10] = P. falciparum blood-stage parasites, 72 hours in culture, read-out: Blood stage 72h EC50
[11] = 48 hours in culture, read-out: Liver stage 48h EC50
[12] = Plasmodium falciparum, DD2, 72 h, read-out: Blood stage 72h EC50
[13] = Plasmodium berghei, HepG2, 48 hours in culture, read-out: Liver stage 48h EC50
[14] = Plasmodium falciparum, DD2, 48 h, read-out: Blood stage 48h EC50
[15] = Plasmodium falciparum, DD2, blood-stage parasites, 48 h in culture, read-out: Blood stage 48 h EC50
[16] = Plasmodium falciparum, DD2, blood-stage parasites, 72 h in culture, read-out: Blood stage 72 h EC50
[17] = Plasmodium berghei, 48 h in culture, read-out: Liver 48 h EC50

## CCN(CC)CC(O)CNc1c2ccc(Cl)cc2nc2ccc(OC)cc12 (stereo not drawn) [Acranil]
P. falciparum Dd2-HLH [1]; [9]
  EC50: 8 nM
HepG2 cells [2]; HepG2 cells
  CC50: 1110 nM
HEK293T cells [3]; HEK293T cells
  CC50: 1430 nM
P. falciparum Dd2-HLH [4]; [10]
  EC50: 20 nM
[5]; [11]
  EC50: 312 nM

## O=C(CC1c2ccccc2C(=O)N1c1ccc2ccc(Cl)nc2n1)N1CCC2(CC1)OCCO2 (stereo not drawn) [Pazinaclone]
P. falciparum Dd2-HLH [1]; [9]
  EC50: 77 nM
HepG2 cells [2]; HepG2 cells
  CC50: > 9950 nM
HEK293T cells [3]; HEK293T cells
  CC50: > 9950 nM
P. falciparum Dd2-HLH [4]; [10]
  EC50: 427 nM
[5]; [11]
  EC50: > 10000 nM

## N[C@@H]1[C@H]2CN(c3nc4c(cc3F)c(=O)c(C(=O)O)cn4-c3ccc(F)cc3F)C[C@@H]12 [Trovafloxacin mesilate, reference compound]
P. falciparum Dd2-HLH [1]; Plasmodium falciparum, DD2, read-out: EC50, antiplasmodial drug sensitivity assays in bloodstage
  EC50: 9950 nM
P. falciparum Dd2-HLH [4]; [12]
  EC50: 669 nM
In vitro
  CC50: > 9950 nM
[5]; [13]
  EC50: > 10000 nM

## COc1ccc(C)cc1NC(=O)Nc1nc2ccc(Nc3ncnc4cc(OCCCN5CCN(C)CC5)c(OC)cc34)cc2s1 [Compound 4SC-203]
HEK293T cells [6]
  CC50: 3000 nM
HepG2 cells [7]
  CC50: 4690 nM
P. falciparum Dd2-HLH [4]; [10]
  EC50: 729 nM
[5]; [11]
  EC50: 3330 nM

## CCOC(=O)[C@@H]1O[C@H]1C(=O)NC(CC(C)C)C(=O)N1CCN(Cc2ccc(OC)c(OC)c2OC)CC1 (stereo partly drawn) [NCO 700]
P. falciparum Dd2-HLH [1]; [9]
  EC50: 16 nM
HEK293T cells [6]
  CC50: > 9950 nM
HepG2 cells [7]
  CC50: > 9950 nM
P. falciparum Dd2-HLH [4]; [10]
  EC50: 33 nM
[5]; [11]
  EC50: > 10000 nM

## Cn1/c(=N\C#N)n(-c2ccc(C(C)(C)C#N)nc2)c2c3cc(-c4cnc(N)c(C(F)(F)F)c4)ccc3ncc21 [Panulisib]
P. falciparum Dd2-HLH [1]; [9]
  EC50: 19 nM
HEK293T cells [6]
  CC50: 11 nM
HepG2 cells [7]
  CC50: 10 nM
P. falciparum Dd2-HLH [4]; [10]
  EC50: 159 nM
[5]; [11]
  EC50: 77 nM

## C[C@@H](Oc1cc(-c2cnn(C3CCNCC3)c2)cnc1N)c1c(Cl)ccc(F)c1Cl [Crizotinib]
P. falciparum Dd2-HLH [1]; [14]
  EC50: 225 nM
P. falciparum Dd2-HLH [4]; [12]
  EC50: 827 nM
In vitro
  CC50: > 9950 nM
[5]; [13]
  EC50: 8520 nM

## COc1cccc2c1C(=O)c1c(O)c3c(c(O)c1C2=O)C[C@@](O)(C(=O)CO)C[C@@H]3O[C@H]1C[C@H](N2CCO[C@H](OC)C2)[C@H](O)[C@H](C)O1 [Nemorubicin, reference compound]
P. falciparum Dd2-HLH [1]; [15]
  EC50: 4 nM
[8]
  CC50 at 72 h: 2 nM
P. falciparum Dd2-HLH [4]; [16]
  EC50: 9 nM
In vitro
  CC50: 5 nM
[5]; [17]
  EC50: 9 nM

## O=C(CC1NCCCC1O)Cn1cnc2cc(Br)c(Cl)cc2c1=O (stereo not drawn) [Halofuginone, reference compound]
P. falciparum Dd2-HLH [1]; Plasmodium falciparum, DD2, Hec50, 48 h, read-out: Blood stage 48 h EC50
  EC50: 1 nM
P. falciparum Dd2-HLH [4]; [12]
  EC50: 1 nM
In vitro
  CC50 at 72 h: 88 nM
[5]; [17]
  EC50: 70 nM

## CCCCCN=C(N)Nc1nc(-c2cnc(C)[nH]2)cs1 [CP 66948]
P. falciparum Dd2-HLH [1]; [9]
  EC50: 615 nM
HEK293T cells [6]
  CC50: > 9950 nM
HepG2 cells [7]
  CC50: > 9950 nM
P. falciparum Dd2-HLH [4]; [10]
  EC50: 977 nM
[5]; [11]
  EC50: > 10000 nM

## CC[C@@]1(O)C[C@H](O[C@H]2C[C@H](N(C)C)[C@H](O[C@H]3C[C@H](O)[C@H](O[C@H]4CCC(=O)[C@H](C)O4)[C@H](C)O3)[C@H](C)O2)c2c(cc3c(c2O)C(=O)c2c(O)cccc2C3=O)[C@H]1C(=O)OC [Aclarubicin]
P. falciparum Dd2-HLH [1]; [14]
  EC50: 154 nM
P. falciparum Dd2-HLH [4]; [12]
  EC50: 302 nM
In vitro
  CC50: 166 nM
[5]; [13]
  EC50: 2230 nM

## O=C1c2ccccc2-n2c1nc1ccccc1c2=O [Tryptanthrin]
P. falciparum Dd2-HLH [1]; [14]
  EC50: 737 nM
P. falciparum Dd2-HLH [4]; [12]
  EC50: 562 nM
In vitro
  CC50: > 9950 nM
[5]; [13]
  EC50: 41 nM

## Cc1c2oc3c(C)ccc(C(=O)N[C@@H]4C(=O)N[C@H](C(C)C)C(=O)N5CCC[C@H]5C(=O)N(C)CC(=O)N(C)[C@@H](C(C)C)C(=O)O[C@@H]4C)c3nc-2c(C(=O)N[C@@H]2C(=O)N[C@H](C(C)C)C(=O)N3CCC[C@H]3C(=O)N(C)CC(=O)N(C)[C@@H](C(C)C)C(=O)O[C@@H]2C)c(N)c1=O [Dactinomycin, reference compound] (I: T[dV]P[Sar][NMeV] / II: T[dV]P[Sar][NMeV]; ester I:1-I:C, II:1-II:C; linker I:N-II:N via Actinocin(9to1))
P. falciparum Dd2-HLH [1]; [15]
  EC50: 3 nM
[8]
  CC50 at 72 h: 3 nM
P. falciparum Dd2-HLH [4]; [16]
  EC50: 8 nM
In vitro
  CC50: 9 nM
[5]; [17]
  EC50: 73 nM

## Oc1ccc(CCN2CCC(Nc3nc4ccccc4n3Cc3ccc(F)cc3)CC2)cc1 [Desmethylastemizole]
P. falciparum Dd2-HLH [1]; [9]
  EC50: 23 nM
HepG2 cells [2]; HepG2 cytotoxicity
  CC50: 58 nM
HEK293T cells [3]; HEK293T cytotoxicity
  CC50: 5920 nM
P. falciparum Dd2-HLH [4]; [10]
  EC50: 47 nM
[5]; [11]
  EC50: 70 nM

## CCCC1(CCC)CCC2(CCN(CCCN(CC)CC)C2)CC1 [Atiprimod dimaleate]
P. falciparum Dd2-HLH [1]; [9]
  EC50: 43 nM
HepG2 cells [2]; HepG2 cells
  CC50: 2990 nM
HEK293T cells [3]; HEK293T cells
  CC50: 1720 nM
P. falciparum Dd2-HLH [4]; [10]
  EC50: 430 nM
[5]; [11]
  EC50: 7330 nM

## CCN(CC)CCN1C(=O)c2c(c3c4cccc(Cl)c4n([C@@H]4O[C@H](CO)[C@@H](OC)[C@H](O)[C@H]4O)c3c3[nH]c4c(Cl)cccc4c23)C1=O [Becatecarin]
HEK293T cells [6]
  CC50: 143 nM
HepG2 cells [7]
  CC50: 158 nM
P. falciparum Dd2-HLH [4]; [10]
  EC50: 194 nM
[5]; [11]
  EC50: 7160 nM

## NC(=O)C(c1ccccc1)(c1ccccc1)[C@@H]1CCN(CCc2ccc3c(c2)CCO3)C1 [Darifen/Acin Hydrobromide]
P. falciparum Dd2-HLH [1]; [14]
  EC50: 1430 nM
[8]
  CC50 at 72 h: > 9990 nM
P. falciparum Dd2-HLH [4]; [12]
  EC50: 324 nM
In vitro
  CC50: > 9950 nM
[5]; [13]
  EC50: > 10000 nM
